Test results published in ChEMBL document CHEMBL3734700, “Design, synthesis and biological activity of 4-[(benzimidazol-1-yl)methyl]biphenyl-2-sulphonamides as dual angiotensin II and endothelin A receptor antagonists” (Medchemcomm, 2015).
Activity calls are given as the source filed them. No cut-off for these calls is given here.

Columns and labels:
[1] = molecular target: T1, Type-1 angiotensin II receptor (Homo sapiens, UniProt P30556); test: Displacement of 125I-labeled Sar1-Ile8-angiotensin II from human AT1 receptor incubated for 2 hrs by gamma counting analysis
T1 sequence (P30556 whole entry): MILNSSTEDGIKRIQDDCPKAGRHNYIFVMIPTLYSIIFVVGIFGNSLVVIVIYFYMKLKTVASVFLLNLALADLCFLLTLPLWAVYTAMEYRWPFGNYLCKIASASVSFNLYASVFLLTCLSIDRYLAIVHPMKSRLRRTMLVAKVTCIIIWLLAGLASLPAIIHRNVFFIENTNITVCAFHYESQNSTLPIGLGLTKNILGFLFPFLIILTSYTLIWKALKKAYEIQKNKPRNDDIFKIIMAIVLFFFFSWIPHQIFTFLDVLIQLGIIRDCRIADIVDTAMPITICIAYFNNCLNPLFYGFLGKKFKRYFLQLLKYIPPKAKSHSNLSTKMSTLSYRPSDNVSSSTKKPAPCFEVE

[2] = molecular target: T2, Endothelin-1 receptor (Homo sapiens, UniProt P25101); test: Displacement of 125I-labeled endothelin 1 from human ETA receptor expressed in CHO-K1 cells incubated for 4 hrs by gamma counting analysis; type: cell-based
T2 sequence (P25101 whole entry): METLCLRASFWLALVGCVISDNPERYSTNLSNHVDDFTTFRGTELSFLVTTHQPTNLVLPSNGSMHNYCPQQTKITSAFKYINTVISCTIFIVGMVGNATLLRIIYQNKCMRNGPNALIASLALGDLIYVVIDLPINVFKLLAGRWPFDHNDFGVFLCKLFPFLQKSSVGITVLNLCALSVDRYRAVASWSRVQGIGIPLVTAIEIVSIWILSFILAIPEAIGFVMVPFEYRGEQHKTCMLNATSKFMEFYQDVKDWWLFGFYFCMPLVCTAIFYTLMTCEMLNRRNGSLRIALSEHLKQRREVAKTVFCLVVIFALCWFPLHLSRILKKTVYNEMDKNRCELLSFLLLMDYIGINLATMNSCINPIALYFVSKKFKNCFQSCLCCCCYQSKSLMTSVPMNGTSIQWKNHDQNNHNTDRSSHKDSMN

[3] = system: Rattus norvegicus; test: Antihypertensive activity in spontaneously hypertensive rat assessed as reduction in blood pressure at 20 mg/kg, po by tail plethysmographic analysis; type: functional, organism-based

SMILES | IC50 [1] | IC50 [2] | Activity [3]
CCCc1nc2c(C)cc(C(=O)NCc3ccccc3OC)cc2n1Cc1ccc(-c2ccccc2S(=O)(=O)Nc2onc(C)c2C)cc1 | 217 nM | 310 nM | –
CCCc1nc2c(C)cc(C(=O)NC(C)(C)C)cc2n1Cc1ccc(-c2ccccc2S(=O)(=O)Nc2onc(C)c2C)cc1 | 385 nM | 140000 nM | –
CCCc1nc2c(C)cc(C(=O)NCCN3CCN(C)CC3)cc2n1Cc1ccc(-c2ccccc2S(=O)(=O)Nc2onc(C)c2C)cc1 | 47 nM | 1800 nM | –
CCCCNC(=O)c1cc(C)c2nc(CCC)n(Cc3ccc(-c4ccccc4S(=O)(=O)Nc4onc(C)c4C)cc3)c2c1 | 465 nM | 314 nM | –
CCCc1nc2c(C)cc(C(=O)NCc3ccc(OC)cc3)cc2n1Cc1ccc(-c2ccccc2S(=O)(=O)Nc2onc(C)c2C)cc1 | 81 nM | 388 nM | –
CCCc1nc2c(C)cc(C(=O)NCCc3cccc(OC)c3)cc2n1Cc1ccc(-c2ccccc2S(=O)(=O)Nc2onc(C)c2C)cc1 | 42 nM | 24000 nM | –
CCCCc1nn(-c2ccccc2Cl)c(=O)n1Cc1ccc(-c2ccccc2S(=O)(=O)Nc2onc(C)c2C)cc1 | 7 nM | 11 nM | –
CCCc1nc2c(C)cc(C(=O)NCCc3cc(OC)ccc3OC)cc2n1Cc1ccc(-c2ccccc2S(=O)(=O)Nc2onc(C)c2C)cc1 | 37 nM | 3000 nM | –
CCCc1nc2c(C)cc(C(=O)Nc3ccccc3OC)cc2n1Cc1ccc(-c2ccccc2S(=O)(=O)Nc2onc(C)c2C)cc1 | 419 nM | 137 nM | –
CCCc1nc2c(C)cc(C(=O)NCCN3CCOCC3)cc2n1Cc1ccc(-c2ccccc2S(=O)(=O)Nc2onc(C)c2C)cc1 | 31 nM | 1400 nM | –
CCCc1nc2c(C)cc(C(=O)NCc3cccc(OC)c3)cc2n1Cc1ccc(-c2ccccc2S(=O)(=O)Nc2onc(C)c2C)cc1 | 50 nM | 898 nM | –
CCCc1nc2c(C)cc(C(=O)NCCc3ccccc3F)cc2n1Cc1ccc(-c2ccccc2S(=O)(=O)Nc2onc(C)c2C)cc1 | 160 nM | 262 nM | –
CCCNC(=O)c1cc(C)c2nc(CCC)n(Cc3ccc(-c4ccccc4S(=O)(=O)Nc4onc(C)c4C)cc3)c2c1 | 373 nM | 35000 nM | –
CCCc1nc2c(C)cc(C(=O)NCc3ccc(OC)c(OC)c3)cc2n1Cc1ccc(-c2ccccc2S(=O)(=O)Nc2onc(C)c2C)cc1 | 56 nM | 28000 nM | –
CCCc1nc2c(C)cc(C(=O)NCCc3ccccc3)cc2n1Cc1ccc(-c2ccccc2S(=O)(=O)Nc2onc(C)c2C)cc1 | 8 nM | 956 nM | –
CCCc1nc2c(C)cc(C(=O)NC(C)C)cc2n1Cc1ccc(-c2ccccc2S(=O)(=O)Nc2onc(C)c2C)cc1 | 341 nM | 277 nM | –
CCCc1nc2c(C)cc(C(=O)NCCc3ccc(F)cc3)cc2n1Cc1ccc(-c2ccccc2S(=O)(=O)Nc2onc(C)c2C)cc1 | 152 nM | 56000 nM | –
CCCCC1=NC2(CCCC2)C(=O)N1Cc1ccc(-c2ccccc2-c2nnn[nH]2)cc1 | – | – | Active
CCCc1nc2c(C)cc(C(=O)NCCc3ccc(OC)cc3)cc2n1Cc1ccc(-c2ccccc2S(=O)(=O)Nc2onc(C)c2C)cc1 | 76 nM | 200000 nM | –
CCCc1nc2c(C)cc(C(=O)Nc3ccccc3)cc2n1Cc1ccc(-c2ccccc2S(=O)(=O)Nc2onc(C)c2C)cc1 | 201 nM | 27000 nM | –
CCCc1nc2c(C)cc(C(=O)NCCN3CCCCC3)cc2n1Cc1ccc(-c2ccccc2S(=O)(=O)Nc2onc(C)c2C)cc1 | 94 nM | 5800 nM | –
CCCc1nc2c(C)cc(C(=O)NCCc3ccc(OC)c(OC)c3)cc2n1Cc1ccc(-c2ccccc2S(=O)(=O)Nc2onc(C)c2C)cc1 | 92 nM | 55000 nM | –
CCCc1nc2c(C)cc(C(=O)NCc3ccccc3)cc2n1Cc1ccc(-c2ccccc2S(=O)(=O)Nc2onc(C)c2C)cc1 | 28 nM | 10 nM | Active
CCCc1nc2c(C)cc(C(=O)NCCN3CCCC3)cc2n1Cc1ccc(-c2ccccc2S(=O)(=O)Nc2onc(C)c2C)cc1 | 95 nM | 5500 nM | –
CCCc1nc2c(n1Cc1ccc(-c3ccccc3S(=O)(=O)Nc3onc(C)c3C)c(C#N)c1)C(=O)CCCC2 | 16 nM | 15 nM | –
CCCc1cc(Cn2c(CC)nc3c(C)cc(C)nc32)ccc1OC(C(=O)NS(=O)(=O)c1ccc(C(C)C)cc1)c1ccc2c(c1)OCO2 (configuration not stated) | 13 nM | 24 nM | –
